Data reported in PubChem BioAssay AID2060331 (Molecular Pharmacology Branch, DTP, NCI, 2025).

System: Hs578T multi-cell spheroids, viability
Test: Anticancer human tumor Hs578T cell line growth inhibition [IpAb];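 note: drug exposure lasted 7 days before readout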
Details: for IC50: curve of first compound; for viability, T/C: stronger effect = lower value
Method in brief: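 Multi-cell spheroids of 60% tumour cells, 25% HUVEC and 15% MSC in ultra-low-attachment U-bottom wells, treated with agents combined with ipatasertib or abemaciclib. Half-log ranges top out near clinical Cmax, or 10 microM when Cmax is unknown.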

[1] = second compound 0.1 µM, first compound 0.0316 µM
[2] = second compound 0.1 µM, first compound 0.1 µM
[3] = second compound 0.1 µM, first compound 0.316 µM
[4] = second compound 0.1 µM, first compound 1 µM
[5] = second compound 0.316 µM, first compound 0.0316 µM
[6] = second compound 0.316 µM, first compound 0.1 µM
[7] = second compound 0.316 µM, first compound 0.316 µM
[8] = second compound 0.316 µM, first compound 1 µM
[9] = second compound 1 µM, first compound 0.0316 µM
[10] = second compound 1 µM, first compound 0.1 µM
[11] = second compound 1 µM, first compound 0.316 µM
[12] = second compound 1 µM, first compound 1 µM
[13] = second compound 3.16 µM, first compound 0.0316 µM
[14] = second compound 3.16 µM, first compound 0.1 µM
[15] = second compound 3.16 µM, first compound 0.316 µM
[16] = second compound 3.16 µM, first compound 1 µM
[17] = second compound 10 µM, first compound 0.0316 µM
[18] = second compound 10 µM, first compound 0.1 µM
[19] = second compound 10 µM, first compound 0.316 µM
[20] = second compound 10 µM, first compound 1 µM
[21] = second compound 0.1 µM, first compound 3.16 µM
[22] = second compound 0.1 µM, first compound 10 µM
[23] = second compound 0.316 µM, first compound 3.16 µM
[24] = second compound 0.316 µM, first compound 10 µM
[25] = second compound 1 µM, first compound 3.16 µM
[26] = second compound 1 µM, first compound 10 µM
[27] = second compound 3.16 µM, first compound 3.16 µM
[28] = second compound 3.16 µM, first compound 10 µM
[29] = second compound 10 µM, first compound 3.16 µM
[30] = second compound 10 µM, first compound 10 µM

## CC(=O)c1c(C)c2cnc(Nc3ccc(N4CCNCC4)cn3)nc2n(C2CCCC2)c1=O + CC(C)NCC(C(=O)N1CCN(c2ncnc3c2C(C)CC3O)CC1)c1ccc(Cl)cc1
Second compound 0.1 µM
  IC50: > 300 nM
Second compound 0.316 µM
  IC50: > 300 nM
Second compound 1 µM
  IC50: 20 nM
Second compound 3.16 µM
  IC50: 11.1 nM
Second compound 10 µM
  IC50: < 0.949 nM
Second compound 0.1 µM, first compound 0.000949 µM
  viability, T/C: 96.7%
Second compound 0.1 µM, first compound 0.003 µM
  viability, T/C: 86.1%
Second compound 0.1 µM, first compound 0.00949 µM
  viability, T/C: 83.3%
Second compound 0.1 µM, first compound 0.03 µM
  viability, T/C: 71.4%
Second compound 0.1 µM, first compound 0.0949 µM
  viability, T/C: 64.2%
Second compound 0.1 µM, first compound 0.3 µM
  viability, T/C: 60.1%
Second compound 0.316 µM, first compound 0.000949 µM
  viability, T/C: 92.7%
Second compound 0.316 µM, first compound 0.003 µM
  viability, T/C: 79.7%
Second compound 0.316 µM, first compound 0.00949 µM
  viability, T/C: 70.3%
Second compound 0.316 µM, first compound 0.03 µM
  viability, T/C: 62.3%
Second compound 0.316 µM, first compound 0.0949 µM
  viability, T/C: 59.4%
Second compound 0.316 µM, first compound 0.3 µM
  viability, T/C: 49.5%
Second compound 1 µM, first compound 0.000949 µM
  viability, T/C: 62.7%
Second compound 1 µM, first compound 0.003 µM
  viability, T/C: 67.7%
Second compound 1 µM, first compound 0.00949 µM
  viability, T/C: 56.1%
Second compound 1 µM, first compound 0.03 µM
  viability, T/C: 48.6%
Second compound 1 µM, first compound 0.0949 µM
  viability, T/C: 43%
Second compound 1 µM, first compound 0.3 µM
  viability, T/C: 47.2%
Second compound 3.16 µM, first compound 0.000949 µM
  viability, T/C: 55.6%
Second compound 3.16 µM, first compound 0.003 µM
  viability, T/C: 58.8%
Second compound 3.16 µM, first compound 0.00949 µM
  viability, T/C: 52.8%
Second compound 3.16 µM, first compound 0.03 µM
  viability, T/C: 41.2%
Second compound 3.16 µM, first compound 0.0949 µM
  viability, T/C: 42.3%
Second compound 3.16 µM, first compound 0.3 µM
  viability, T/C: 38.8%
Second compound 10 µM, first compound 0.000949 µM
  viability, T/C: 48.7%
Second compound 10 µM, first compound 0.003 µM
  viability, T/C: 47.5%
Second compound 10 µM, first compound 0.00949 µM
  viability, T/C: 41.7%
Second compound 10 µM, first compound 0.03 µM
  viability, T/C: 35.5%
Second compound 10 µM, first compound 0.0949 µM
  viability, T/C: 35.6%
Second compound 10 µM, first compound 0.3 µM
  viability, T/C: 37.3%

## COc1c(OCCCN2CCOCC2)ccc2c3n(c(=NC(=O)c4cnc(N)nc4)nc12)CCN3 + CC(C)NCC(C(=O)N1CCN(c2ncnc3c2C(C)CC3O)CC1)c1ccc(Cl)cc1
Second compound 0.1 µM
  IC50: 33.2 nM
Second compound 0.316 µM
  IC50: 18.8 nM
Second compound 1 µM
  IC50: 8.74 nM
Second compound 3.16 µM
  IC50: 3.84 nM
Second compound 10 µM
  IC50: < 3.16 nM
Second compound 0.1 µM, first compound 0.00316 µM
  viability, T/C: 90.4%
Second compound 0.1 µM, first compound 0.01 µM
  viability, T/C: 76.8%
[1]
  viability, T/C: 47.4%
[2]
  viability, T/C: 31%
[3]
  viability, T/C: 15%
[4]
  viability, T/C: 5.13%
Second compound 0.316 µM, first compound 0.00316 µM
  viability, T/C: 81.7%
Second compound 0.316 µM, first compound 0.01 µM
  viability, T/C: 56.4%
[5]
  viability, T/C: 43.5%
[6]
  viability, T/C: 27%
[7]
  viability, T/C: 14.7%
[8]
  viability, T/C: 5.04%
Second compound 1 µM, first compound 0.00316 µM
  viability, T/C: 57.7%
Second compound 1 µM, first compound 0.01 µM
  viability, T/C: 50%
[9]
  viability, T/C: 36.6%
[10]
  viability, T/C: 24.9%
[11]
  viability, T/C: 14.8%
[12]
  viability, T/C: 5.35%
Second compound 3.16 µM, first compound 0.00316 µM
  viability, T/C: 51.3%
Second compound 3.16 µM, first compound 0.01 µM
  viability, T/C: 44.5%
[13]
  viability, T/C: 39.3%
[14]
  viability, T/C: 25.2%
[15]
  viability, T/C: 15.1%
[16]
  viability, T/C: 5%
Second compound 10 µM, first compound 0.00316 µM
  viability, T/C: 45.5%
Second compound 10 µM, first compound 0.01 µM
  viability, T/C: 43.9%
[17]
  viability, T/C: 33.6%
[18]
  viability, T/C: 20.3%
[19]
  viability, T/C: 13.2%
[20]
  viability, T/C: 3.28%

## Cc1nc(NC(=O)N2CCCC2C(N)=O)sc1-c1ccnc(C(C)(C)C(F)(F)F)c1 (stereo not given) + CC(C)NCC(C(=O)N1CCN(c2ncnc3c2C(C)CC3O)CC1)c1ccc(Cl)cc1
Second compound 0.1 µM
  IC50: 1600 nM
Second compound 0.316 µM
  IC50: 977 nM
Second compound 1 µM
  IC50: 491 nM
Second compound 3.16 µM
  IC50: 101 nM
Second compound 10 µM
  IC50: < 31.6 nM
[1]
  viability, T/C: 96.8%
[2]
  viability, T/C: 87.8%
[3]
  viability, T/C: 70.8%
[4]
  viability, T/C: 57.4%
[21]
  viability, T/C: 42.6%
[22]
  viability, T/C: 11.7%
[5]
  viability, T/C: 80.1%
[6]
  viability, T/C: 71.3%
[7]
  viability, T/C: 57.1%
[8]
  viability, T/C: 48.7%
[23]
  viability, T/C: 41%
[24]
  viability, T/C: 13.9%
[9]
  viability, T/C: 61.8%
[10]
  viability, T/C: 61.4%
[11]
  viability, T/C: 53.9%
[12]
  viability, T/C: 42.3%
[25]
  viability, T/C: 30.6%
[26]
  viability, T/C: 8.93%
[13]
  viability, T/C: 53.6%
[14]
  viability, T/C: 51%
[15]
  viability, T/C: 44.1%
[16]
  viability, T/C: 35%
[27]
  viability, T/C: 32.5%
[28]
  viability, T/C: 9.58%
[17]
  viability, T/C: 45.3%
[18]
  viability, T/C: 42.1%
[19]
  viability, T/C: 39.2%
[20]
  viability, T/C: 28.8%
[29]
  viability, T/C: 21.8%
[30]
  viability, T/C: 1.81%

## Cn1nccc1Nc1nccc(-c2ccn(C(CO)c3ccc(Cl)c(F)c3)c(=O)c2)n1 (stereo not given) + CC(C)NCC(C(=O)N1CCN(c2ncnc3c2C(C)CC3O)CC1)c1ccc(Cl)cc1
Second compound 0.1 µM
  IC50: 4560 nM
Second compound 0.316 µM
  IC50: 2610 nM
Second compound 1 µM
  IC50: 1520 nM
Second compound 3.16 µM
  IC50: 626 nM
Second compound 10 µM
  IC50: 138 nM
[1]
  viability, T/C: 106%
[2]
  viability, T/C: 109%
[3]
  viability, T/C: 111%
[4]
  viability, T/C: 76.8%
[21]
  viability, T/C: 59.4%
[22]
  viability, T/C: 37.9%
[5]
  viability, T/C: 91.5%
[6]
  viability, T/C: 90.5%
[7]
  viability, T/C: 94.3%
[8]
  viability, T/C: 60.9%
[23]
  viability, T/C: 50.9%
[24]
  viability, T/C: 23.6%
[9]
  viability, T/C: 65.8%
[10]
  viability, T/C: 73.5%
[11]
  viability, T/C: 77.7%
[12]
  viability, T/C: 54.3%
[25]
  viability, T/C: 36.2%
[26]
  viability, T/C: 14.1%
[13]
  viability, T/C: 62.2%
[14]
  viability, T/C: 61.6%
[15]
  viability, T/C: 61.7%
[16]
  viability, T/C: 42.4%
[27]
  viability, T/C: 16.3%
[28]
  viability, T/C: 2.55%
[17]
  viability, T/C: 48.1%
[18]
  viability, T/C: 55.6%
[19]
  viability, T/C: 45.6%
[20]
  viability, T/C: 31.1%
[29]
  viability, T/C: 3.87%
[30]
  viability, T/C: 0.64%
